Data set [1] deals with Urochloa platyphylla. Kind of data set: Herbicidal activity against Urochloa platyphylla at 1.68 kg/ha applied using mixing wheel cultivator. It counts as functional.
Data set [2] deals with Urochloa platyphylla. Kind of data set: Herbicidal activity against Urochloa platyphylla at 0.84 kg/ha applied using mixing wheel cultivator. It counts as functional.
Data set [3] deals with Urochloa platyphylla. Kind of data set: Herbicidal activity against Urochloa platyphylla at 0.42 kg/ha applied using mixing wheel cultivator. It counts as functional.
Data set [4] relates to Amaranthus tuberculatus. Kind of data set: Herbicidal activity against Amaranthus tuberculatus at 1.68 kg/ha applied using mixing wheel cultivator. It counts as functional.
Data set [5] concerns Amaranthus tuberculatus. Kind of data set: Herbicidal activity against Amaranthus tuberculatus at 0.84 kg/ha applied using mixing wheel cultivator. It counts as functional.
The subject of data set [6] is Amaranthus tuberculatus. Kind of data set: Herbicidal activity against Amaranthus tuberculatus at 0.42 kg/ha applied using mixing wheel cultivator. It counts as functional.
Data set [7] deals with Sesamum indicum. Kind of data set: Phytotoxicity against Sesamum indicum (sesame) plant assessed as yield at 1.68 kg/ha applied using mixing wheel cultivator (reference value: 333 kg/ha). In kind it is organism-based. Particulars: in vivo, other.
In data set [8] the test system is Sesamum indicum. Kind of data set: Phytotoxicity against Sesamum indicum (sesame) plant assessed as yield at 0.84 kg/ha applied using mixing wheel cultivator (reference value: 333 kg/ha). It counts as organism-based. Particulars: in vivo, other.
The test system of data set [9] is Sesamum indicum. Kind of data set: Phytotoxicity against Sesamum indicum (sesame) plant assessed as yield at 0.42 kg/ha applied using mixing wheel cultivator (reference value: 333 kg/ha). In kind it is organism-based. Particulars: in vivo, other.
Data set [10] deals with Sesamum indicum. Kind of data set: Phytotoxicity against Sesamum indicum (sesame) plant assessed as stunt in growth at 1.68 kg/ha applied using mixing wheel cultivator (reference value: 0%). As to conditions: in vivo, other. In kind it is organism-based.
Data set [11] has as its system Sesamum indicum. Kind of data set: Phytotoxicity against Sesamum indicum (sesame) plant assessed as stunt in growth at 0.84 kg/ha applied using mixing wheel cultivator (reference value: 0%). It counts as organism-based. Particulars: in vivo, other.
For data set [12], the system named is Sesamum indicum. Kind of data set: Phytotoxicity against Sesamum indicum (sesame) plant assessed as stunt in growth at 0.42 kg/ha applied using mixing wheel cultivator (reference value: 0%). It counts as organism-based. Particulars: in vivo, other.
Data set [13] has as its system Sesamum indicum. Kind of data set: Phytotoxicity against Sesamum indicum (sesame) plant assessed as sesame stand at 1.68 kg/ha applied using mixing wheel cultivator relative to control. It counts as organism-based. As to conditions: in vivo, other.
Data set [14] concerns Sesamum indicum. Kind of data set: Phytotoxicity against Sesamum indicum (sesame) plant assessed as sesame stand at 0.84 kg/ha applied using mixing wheel cultivator relative to control. In kind it is organism-based. As to conditions: in vivo, other.
Data set [15] has as its system Sesamum indicum. Kind of data set: Phytotoxicity against Sesamum indicum (sesame) plant assessed as sesame stand at 0.42 kg/ha applied using mixing wheel cultivator relative to control. In kind it is organism-based. Particulars: in vivo, other.
Data set [16] concerns Urochloa platyphylla. Kind of data set: Herbicidal activity against Urochloa platyphylla at 2.24 kg/ha formulated as prowl EC applied using mixing wheel cultivator. In kind it is functional.
In data set [17] the test system is Urochloa platyphylla. Kind of data set: Herbicidal activity against Urochloa platyphylla at 1.12 kg/ha formulated as prowl EC applied using mixing wheel cultivator. In kind it is functional.
Data set [18] has as its system Urochloa platyphylla. Kind of data set: Herbicidal activity against Urochloa platyphylla at 0.56 kg/ha formulated as prowl EC applied using mixing wheel cultivator. It counts as functional.
For data set [19], the system named is Amaranthus tuberculatus. Kind of data set: Herbicidal activity against Amaranthus tuberculatus at 1.4 kg/ha formulated as prowl H2O applied using mixing wheel cultivator. It counts as functional.
Data set [20] deals with Amaranthus tuberculatus. Kind of data set: Herbicidal activity against Amaranthus tuberculatus at 1.12 kg/ha formulated as prowl H2O applied using mixing wheel cultivator. In kind it is functional.
In data set [21] the test system is Amaranthus tuberculatus. Kind of data set: Herbicidal activity against Amaranthus tuberculatus at 0.84 kg/ha formulated as prowl H2O applied using mixing wheel cultivator. In kind it is functional.
Data set [22] concerns Amaranthus tuberculatus. Kind of data set: Herbicidal activity against Amaranthus tuberculatus at 2.24 kg/ha formulated as prowl EC applied using mixing wheel cultivator. In kind it is functional.
The subject of data set [23] is Amaranthus tuberculatus. Kind of data set: Herbicidal activity against Amaranthus tuberculatus at 1.12 kg/ha formulated as prowl EC applied using mixing wheel cultivator. It counts as functional.
Data set [24] concerns Amaranthus tuberculatus. Kind of data set: Herbicidal activity against Amaranthus tuberculatus at 0.56 kg/ha formulated as prowl EC applied using mixing wheel cultivator. In kind it is functional.
The subject of data set [25] is Sesamum indicum. Kind of data set: Phytotoxicity against Sesamum indicum (sesame) plant assessed as yield at 1.4 kg/ha formulated as prowl H2O applied using mixing wheel cultivator (reference value: 333 kg/ha). As to conditions: in vivo, other. It counts as organism-based.
In data set [26] the test system is Sesamum indicum. Kind of data set: Phytotoxicity against Sesamum indicum (sesame) plant assessed as yield at 1.12 kg/ha formulated as prowl H2O applied using mixing wheel cultivator (reference value: 333 kg/ha). In kind it is organism-based. As to conditions: in vivo, other.
Data set [27] has as its system Sesamum indicum. Kind of data set: Phytotoxicity against Sesamum indicum (sesame) plant assessed as yield at 0.84 kg/ha formulated as prowl H2O applied using mixing wheel cultivator (reference value: 333 kg/ha). In kind it is organism-based. Particulars: in vivo, other.
Data set [28] deals with Sesamum indicum. Kind of data set: Phytotoxicity against Sesamum indicum (sesame) plant assessed as yield at 2.24 kg/ha formulated as prowl EC applied using mixing wheel cultivator (reference value: 333 kg/ha). In kind it is organism-based. Particulars: in vivo, other.
The subject of data set [29] is Sesamum indicum. Kind of data set: Phytotoxicity against Sesamum indicum (sesame) plant assessed as yield at 1.12 kg/ha formulated as prowl EC applied using mixing wheel cultivator (reference value: 333 kg/ha). In kind it is organism-based. Particulars: in vivo, other.
The test system of data set [30] is Sesamum indicum. Kind of data set: Phytotoxicity against Sesamum indicum (sesame) plant assessed as yield at 0.56 kg/ha formulated as prowl EC applied using mixing wheel cultivator (reference value: 333 kg/ha). In kind it is organism-based. Particulars: in vivo, other.
Data set [31] concerns Sesamum indicum. Kind of data set: Phytotoxicity against Sesamum indicum (sesame) plant assessed as stunt in growth at 1.4 kg/ha formulated as prowl H2O applied using mixing wheel cultivator (reference value: 0%). Particulars: in vivo, other. In kind it is organism-based.
Data set [32] relates to Sesamum indicum. Kind of data set: Phytotoxicity against Sesamum indicum (sesame) plant assessed as stunt in growth at 1.12 kg/ha formulated as prowl H2O applied using mixing wheel cultivator (reference value: 0%). In kind it is organism-based. As to conditions: in vivo, other.
For data set [33], the system named is Sesamum indicum. Kind of data set: Phytotoxicity against Sesamum indicum (sesame) plant assessed as stunt in growth at 0.84 kg/ha formulated as prowl H2O applied using mixing wheel cultivator (reference value: 0%). In kind it is organism-based. Particulars: in vivo, other.
Data set [34] has as its system Sesamum indicum. Kind of data set: Phytotoxicity against Sesamum indicum (sesame) plant assessed as stunt in growth at 2.24 kg/ha formulated as prowl EC applied using mixing wheel cultivator (reference value: 0%). As to conditions: in vivo, other. It counts as organism-based.
Data set [35] concerns Sesamum indicum. Kind of data set: Phytotoxicity against Sesamum indicum (sesame) plant assessed as stunt in growth at 1.12 kg/ha formulated as prowl EC applied using mixing wheel cultivator (reference value: 0%). In kind it is organism-based. Particulars: in vivo, other.
For data set [36], the system named is Sesamum indicum. Kind of data set: Phytotoxicity against Sesamum indicum (sesame) plant assessed as stunt in growth at 0.56 kg/ha formulated as prowl EC applied using mixing wheel cultivator (reference value: 0%). It counts as organism-based. Particulars: in vivo, other.
Data set [37] has as its system Sesamum indicum. Kind of data set: Phytotoxicity against Sesamum indicum (sesame) plant assessed as Sesame stand at 1.4 kg/ha formulated as prowl H2O applied using mixing wheel cultivator relative to control. As to conditions: in vivo, other. In kind it is organism-based.
For data set [38], the system named is Sesamum indicum. Kind of data set: Phytotoxicity against Sesamum indicum (sesame) plant assessed as sesame stand at 1.12 kg/ha formulated as prowl H2O applied using mixing wheel cultivator relative to control. As to conditions: in vivo, other. It counts as organism-based.
In data set [39] the test system is Sesamum indicum. Kind of data set: Phytotoxicity against Sesamum indicum (sesame) plant assessed as sesame stand at 0.84 kg/ha formulated as prowl H2O applied using mixing wheel cultivator relative to control. It counts as organism-based. As to conditions: in vivo, other.
Data set [40] has as its system Sesamum indicum. Kind of data set: Phytotoxicity against Sesamum indicum (sesame) plant assessed as sesame stand at 2.24 kg/ha formulated as prowl EC applied using mixing wheel cultivator relative to control. In kind it is organism-based. Particulars: in vivo.
The test system of data set [41] is Sesamum indicum. Kind of data set: Phytotoxicity against Sesamum indicum (sesame) plant assessed as sesame stand at 1.12 kg/ha formulated as prowl EC applied using mixing wheel cultivator relative to control. In kind it is organism-based. As to conditions: in vivo, other.
Data set [42] relates to Sesamum indicum. Kind of data set: Phytotoxicity against Sesamum indicum (sesame) plant assessed as sesame stand at 0.56 kg/ha formulated as prowl EC applied using mixing wheel cultivator relative to control. It counts as organism-based. As to conditions: in vivo, other.
The test system of data set [43] is Urochloa platyphylla. Kind of data set: Herbicidal activity against Urochloa platyphylla at 1.4 kg/ha formulated as prowl H2O applied using mixing wheel cultivator. In kind it is functional.
For data set [44], the system named is Urochloa platyphylla. Kind of data set: Herbicidal activity against Urochloa platyphylla at 1.12 kg/ha formulated as prowl H2O applied using mixing wheel cultivator. It counts as functional.
The subject of data set [45] is Urochloa platyphylla. Kind of data set: Herbicidal activity against Urochloa platyphylla at 0.84 kg/ha formulated as prowl H2O applied using mixing wheel cultivator. In kind it is functional.

`C=C(C)CN(CC)c1c([N+](=O)[O-])cc(C(F)(F)F)cc1[N+](=O)[O-]` [ETHALFLURALIN]: the Activity in the data set with Urochloa platyphylla [1] is recorded as 97%; in the data set with Urochloa platyphylla [2] it was 95%; with Urochloa platyphylla [3] it was 69%; with Amaranthus tuberculatus [4], 93%; in the data set with Amaranthus tuberculatus [5] it was 92%; with Amaranthus tuberculatus [6], 82%. Also, the Activity in the data set with Sesamum indicum [10] stood at 4%; with Sesamum indicum [11] it was 2%; in the data set on Sesamum indicum [12], 4%; with Sesamum indicum [13], 52%; in the data set on Sesamum indicum [14], 78%; with Sesamum indicum [15] it was 95%. For the same compound, the Crop_yield in the data set on Sesamum indicum [7] was 143 kg/ha; with Sesamum indicum [8], 527 kg/ha; in the data set on Sesamum indicum [9], 428 kg/ha.

Consider `CCC(CC)Nc1c([N+](=O)[O-])cc(C)c(C)c1[N+](=O)[O-]` [PENDIMETHALIN], for which the Activity in the data set with Urochloa platyphylla [16] came out at 85%; in the data set on Urochloa platyphylla [17] it was 83%; in the data set with Urochloa platyphylla [18], 63%; in the data set with Amaranthus tuberculatus [19], 83%; with Amaranthus tuberculatus [20] it was 84%; in the data set with Amaranthus tuberculatus [21] it was 96%. Also, the Activity in the data set with Amaranthus tuberculatus [22] was found to be 90%; in the data set on Amaranthus tuberculatus [23], 74%; with Amaranthus tuberculatus [24], 85%; in the data set on Sesamum indicum [31] it was 14%; with Sesamum indicum [32], 4%; in the data set with Sesamum indicum [33], 0%. Besides, the Activity turned out to be 16% in the data set with Sesamum indicum [34]; 3% in the data set on Sesamum indicum [35]; 3% in the data set on Sesamum indicum [36]; 38% in the data set on Sesamum indicum [37]; 53% with Sesamum indicum [38]; 90% with Sesamum indicum [39]. Also, the Activity is 27% in the data set with Sesamum indicum [40]; 55% in the data set on Sesamum indicum [41]; 80% with Sesamum indicum [42]; 73% with Urochloa platyphylla [43]; 80% in the data set on Urochloa platyphylla [44]; 71% with Urochloa platyphylla [45]. Besides, the Crop_yield with Sesamum indicum [25] is on record as 240 kg/ha; in the data set on Sesamum indicum [26], 288 kg/ha; in the data set with Sesamum indicum [27] it was 534 kg/ha; in the data set on Sesamum indicum [28], 233 kg/ha; in the data set on Sesamum indicum [29], 382 kg/ha; in the data set with Sesamum indicum [30], 367 kg/ha.

Consider `CCCN(CCC)c1c([N+](=O)[O-])cc(C(F)(F)F)cc1[N+](=O)[O-]` [TRIFLURALIN], for which the Activity with Urochloa platyphylla [1] worked out at 96%; in the data set on Urochloa platyphylla [2], 91%; in the data set on Urochloa platyphylla [3], 86%; in the data set with Amaranthus tuberculatus [4], 92%; in the data set with Amaranthus tuberculatus [5], 85%; in the data set with Amaranthus tuberculatus [6], 90%. Also, the Activity turned out to be 4% in the data set with Sesamum indicum [10]; 2% in the data set with Sesamum indicum [11]; 0% in the data set on Sesamum indicum [12]; 67% with Sesamum indicum [13]; 76% in the data set with Sesamum indicum [14]; 99% with Sesamum indicum [15]. For the same compound, the Crop_yield in the data set on Sesamum indicum [7] was found to be 406 kg/ha; in the data set on Sesamum indicum [8], 342 kg/ha; in the data set with Sesamum indicum [9] it was 587 kg/ha.

These data come from ChEMBL document CHEMBL3045858, “Weed control and sesame (Sesamum indicum L.) response to preplant incorporated herbicides and method of incorporation” (Crop Prot, 2007).
